In brackets after ≈: the same amount, converted by molar mass. Structures can show the parent of a compound that is named as a salt. Where two headings read alike, the source gives them in different places.
Key:
[1] = tested on: M. tuberculosis H37Rv ∆1258c; assay: microbe, parasite or virus in culture; assay type: cell-based; conditions: Mycobacterium tuberculosis, 168 h
[2] = tested on: M. abscessus ATCC 19977
[3] = molecular target: T1, M. smegmatis ribosomes (strain SZ380) (Mycolicibacterium smegmatis, UniProt A0QSG6); conditions: read-out: Ribo. IC50, cited from earlier work
T1 construct: S30 extracts were prepared by addition of dithiothreitol (DTT) to 1 mM and centrifugation; endogenous in cells; host or cells: M. smegmatis strain SZ380, S30 cell extract
T1 sequence (A0QSG6 whole entry): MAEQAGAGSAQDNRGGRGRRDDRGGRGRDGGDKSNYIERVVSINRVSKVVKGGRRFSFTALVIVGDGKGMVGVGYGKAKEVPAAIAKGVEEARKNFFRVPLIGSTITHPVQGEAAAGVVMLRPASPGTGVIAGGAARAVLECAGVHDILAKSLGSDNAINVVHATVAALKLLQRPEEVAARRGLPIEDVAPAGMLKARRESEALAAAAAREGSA

[4] = tested on: M. tuberculosis H37Rv; assay: microbe, parasite or virus in culture; conditions: Mycobacterium tuberculosis, 168 h, read-out: WT MIC
[5] = tested on: M. abscessus ATCC 19977 ∆2780c; assay: microbe, parasite or virus in culture; assay type: cell-based, Mycobacterium abscessus; conditions: Mycobacteroides abscessus, ATCC19977, 72 h, read-out: ∆2780c MIC
[6] = tested on: M. smegmatis strain MC^2 155; assay: MIC broth microdilution, M. smegmatis; assay type: cell-based, Mycobacterium smegmatis; conditions: Mycolicibacterium smegmatis, MC^2155, 72 h, read-out: WT MIC
[7] = molecular target: T1, M. smegmatis ribosomes (strain SZ380); assay: Mycobacterial cell-free translation inhibition assay; assay type: biochemical, Mycobacterium smegmatis
Method: Mycobacterial cell-free translation inhibition assays were performed as described previously. In brief, M. smegmatis strain SZ380 bacterial cells were disrupted and emulsified with a microfluidizer processor (Microfluidics, Westwood, MA, USA) at 25,000 lb/in^2. S30 extracts were prepared by addition of dithiothreitol (DTT) to 1 mM and centrifugation at 30,000 × g at 4 °C. Translation reaction mixtures containing either test article or DMSO vehicle control and 4 μl of the S30 extract, 0.2 mM amino acid mix, 6 μg tRNA (Sigma), 0.4 μg hFluc mRNA, 0.3 μl protease inhibitor (complete, EDTA-free, Roche), 12 U RNAse inhibitor (Ribolock, Thermo Scientific), 6 μl S30 premix without amino acids (Promega), plus water to a final reaction volume of 15 μl were incubated for 1 h at 37 °C. The reaction was stopped on ice before adding 75 μl of luciferase assay reagent (Promega) and recording of luminescence. Regression analysis and IC50 calculations were performed using GraphPad Prism version 9.3.1 by using the equation [log(inhibitor) vs. response–Variable slope (four parameters)] with the fitting method: least squares (ordinary) fit. Y = Bottom + (Top-Bottom)/(1 + 10^((X-LogIC50))).

[8] = tested on: E. faecalis ATCC 29212; assay: MIC broth microdilution, E. faecalis; assay type: cell-based; conditions: Enterococcus faecalis, ATCC29212, read-out: Minimum Inhibitory Concentration
[9] = tested on: E. faecium ATCC 19434; assay: MIC broth microdilution, E. faecium; assay type: cell-based; conditions: Enterococcus faecium, ATCC19434, read-out: Minimum Inhibitory Concentration
[10] = tested on: S. aureus USA300; assay: MIC broth microdilution, S. aureus; assay type: cell-based; conditions: Staphylococcus aureus, USA300, read-out: Minimum Inhibitory Concentration
[11] = tested on: S. epidermidis ATCC 14990; assay: MIC broth microdilution, S. epidermidis; assay type: cell-based; conditions: Staphylococcus epidermidis, ATCC14990, read-out: Minimum Inhibitory Concentration
[12] = tested on: S. pneumoniae R6; assay: MIC broth microdilution, S. pneumoniae; assay type: cell-based; conditions: Streptococcus pneumoniae, read-out: Minimum Inhibitory Concentration
[13] = tested on: S. pyogenes ATCC 700294; assay: MIC broth microdilution, S. pyogenes; assay type: cell-based; conditions: Streptococcus pyogenes, ATCC700294, read-out: Minimum Inhibitory Concentration
[14] = tested on: A. baumannii ATCC 19606; assay: MIC broth microdilution, A. baumannii; assay type: cell-based, Acinetobacter baumannii; conditions: Acinetobacter baumannii, ATCC19606, read-out: Minimum Inhibitory Concentration
[15] = tested on: K. pneumoniae ATCC 700603; assay: MIC broth microdilution, K. pneumoniae; assay type: cell-based, Klebsiella pneumoniae; conditions: Klebsiella pneumoniae, ATCC700603, read-out: Minimum Inhibitory Concentration
[16] = tested on: P. aeruginosa ATCC 15692; assay: MIC broth microdilution, P. aeruginosa; assay type: cell-based, Pseudomonas aeruginosa; conditions: Pseudomonas aeruginosa, ATCC15692, read-out: Minimum Inhibitory Concentration
[17] = tested on: E. coli K12 ∆tolC; assay: microbe, parasite or virus in culture; assay type: cell-based; conditions: Escherichia coli, read-out: Minimum Inhibitory Concentration
[18] = tested on: M. tuberculosis H37Rv
[19] = tested on: E. coli K12; conditions: E. coli K12 MIC versus K12 ∆tolC MIC
[20] = tested on: M. abscessus ATCC 19977; assay: microbe, parasite or virus in culture; conditions: Mycobacteroides abscessus, ATCC19977, 72 h, read-out: WT MIC
[21] = tested on: E. coli K12; assay: microbe, parasite or virus in culture; conditions: Escherichia coli, K12, read-out: Minimum Inhibitory Concentration
[22] = cell-free translation, M. smegmatis SZ380 S30 extract, luciferase readout, read-out: Ribo. IC50

| Compound | MIC [1] [µg/mL] | Efflux Ratio [2] | MIC [4] [µg/mL] | MIC [5] [µg/mL] | MIC [6] [µg/mL] | IC50 [7, 22] [nM] | MIC [8] [µg/mL] | MIC [9] [µg/mL] | MIC [10] [µg/mL] | MIC [11] [µg/mL] | MIC [12] [µg/mL] | MIC [13] [µg/mL] | MIC [14] [µg/mL] | MIC [15] [µg/mL] | MIC [16] [µg/mL] | MIC [17] [µg/mL] | Efflux Ratio [18] | E. coli Efflux Ratio [19] | MIC [20] [µg/mL] | MIC [21] [µg/mL] | other results |
| --- | --- | --- | --- | --- | --- | --- | --- | --- | --- | --- | --- | --- | --- | --- | --- | --- | --- | --- | --- | --- | --- |
| CN[C@@H]1[C@H](O)[C@H](NC)[C@H]2O[C@]3(O)[C@H](O[C@@H]2[C@H]1O)O[C@H](C)C[C@H]3NC(=O)Cc1ccccn1 [SPA (3), reference compound] | 4 (≈ 8.84 µM) | 4 | 2 (≈ 4.42 µM) |  |  |  |  |  |  |  |  |  |  |  |  |  |  |  |  |  | IC50 ([3]; converted from µg/mL to µM from what was previously reported): 1.8 µM |
| CCCC[C@@H]1C[C@@H](N)[C@]2(O)O[C@@H]3[C@@H](NC)[C@@H](O)[C@@H](NC)[C@H](O)[C@H]3O[C@@H]2O1 [Amino TroSPC (11), 3’-(R)-Amino-3’-deoxy-6’-propyl-dihydrospectinomycin trihydrochloride] | 2 | 1 | 16 | 64 | 32 | 640 | > 64 | > 64 | > 64 | > 64 | 64 | 32 | > 64 | > 64 | > 64 | 32 | 8 | >2 | 64 | > 64 |  |
| CCCCC1CC(O)(CNCc2ccc(F)cc2)C2(O)OC3C(NC)C(O)C(NC)C(O)C3OC2O1 [bAmTroSPC (6), 3′(R)-[(4-Fluorobenzyl)aminomethyl]-6’-propyl-dihydrospectinomycin trihydrochloride] | 1 | 1 | 8 | 64 | 64 | 2490 | 32 | 32 | 64 | 16 | 4 | 2 | > 64 | > 64 | > 64 | 4 to 8 | 8 | 4–8 | 64 | 32 |  |
| CN[C@@H]1[C@H](O)[C@H](NC)[C@H]2O[C@]3(O)[C@H](O[C@@H]2[C@H]1O)O[C@H](C)C[C@@]3(O)CNCCc1ccc(F)cc1 [eAmSPC (7), reference compound] | 0.5 (≈ 1.03 µM) | 4 | 2 (≈ 4.12 µM) | 1 (≈ 2.06 µM) | 4 (≈ 8.24 µM) |  |  |  |  |  |  |  |  |  |  |  | 4 |  | 4 (≈ 8.24 µM) |  | IC50 ([3]; previously reported): 1.01 µM |
| CN[C@@H]1[C@H](O)[C@H](NC)[C@H]2O[C@]3(O)[C@H](O[C@@H]2[C@H]1O)O[C@H](C)C[C@@]3(O)CNCc1ccc(F)cc1 [bAmSPC (5), reference compound] | 2 (≈ 4.24 µM) | 16 | 16 (≈ 33.9 µM) | 8 (≈ 17 µM) |  |  |  |  |  |  |  |  |  |  |  |  | 8 |  | 128 (≈ 271 µM) |  | IC50 ([3]; previously reported): 1.18 µM |
| CCCCC1CC(O)(CNCCc2ccc(F)cc2)C2(O)OC3C(NC)C(O)C(NC)C(O)C3OC2O1 [eAmTroSPC (8), 3′(R)-[(4-Fluorophenylethyl)aminomethyl]-6’-propyl-dihydrospectinomycin trihydrochloride] | 0.25 | 1 | 2 | 8 | 8 |  | 32 | 32 | 64 | 8 | 8 | 4 | > 64 | > 64 | > 64 | 4 to 8 | 8 | 8–16 | 8 | 64 | IC50 [7]: 2310 nM |
| CCCCC1CC(O)(CN)C2(O)OC3C(NC)C(O)C(NC)C(O)C3OC2O1 [AmTroSPC (13), 3’-(R)-Aminomethyl-6’-propyl-dihydrospectinomycin] | 8 (≈ 19.7 µM) | 1 | 64 (≈ 158 µM) | 64 (≈ 158 µM) | 128 (≈ 316 µM) | 2710 | > 64 | > 64 | > 64 | > 64 | 16 to 32 (≈ 39.5 to 78.9 µM) | 16 (≈ 39.5 µM) | > 64 | > 64 | > 64 | 32 (≈ 78.9 µM) | 8 | >2 | 64 (≈ 158 µM) | > 64 |  |
| CCCC[C@@H]1C[C@@H](NC(=O)Cc2ccccn2)[C@]2(O)O[C@@H]3[C@@H](NC)[C@@H](O)[C@@H](NC)[C@H](O)[C@H]3O[C@@H]2O1 [TroSPA (4), 3′-Deoxy-3′(R)-[(pyridin-2-yl)acetylamino]-6’-propyl-dihydrospectinomycin dihydrochloride] | 1 | 4 | 2 | 16 | 32 |  | > 64 | > 64 | > 64 | > 64 | 16 | 8 | > 64 | > 64 | > 64 | 32 | 2 | >2 | 64 | > 64 | IC50 [7]: 2450 nM |

From publication PMC11347369, “Synthesis and antibacterial action of 3’,6’-disubstituted spectinomycins” (The Journal of Antibiotics, 2024)
